Activity calls are given as the source filed them. The calls are words filed in the database; no cut-off is given here.
Experiments:
[1] = Selectivity index, ratio of CC50 for rat L6 cells to IC50 for erythrocytic stage of chloroquine and pyrimethamine resistant Plasmodium falciparum K1; assay type: toxicity; conditions: read-out: Ratio CC50/IC50
[2] = Cytotoxicity against rat L6 cells after 72 hrs by alamar blue staining based fluorescence assay; assay type: cell-based
[3] = Selectivity index, ratio of CC50 for rat L6 cells to IC50 for Trypanosoma cruzi Tulahuen strain C2C4 amastigote forms infected in rat L6 cells; assay type: toxicity, cell-based; conditions: read-out: Ratio CC50/IC50
Trypanosoma cruzi [4] = test: Antitrypanosomal activity against Trypanosoma cruzi Tulahuen strain C2C4 amastigote forms infected in rat L6 cells after 96 hrs by CPRG/Nonidet reagent based photometric method; assay type: functional, organism-based; conditions: Tulahuen strain C2C4, L6, 96 h
Plasmodium falciparum = test: Antiprotozoal activity against erythrocytic stage of chloroquine and pyrimethamine resistant Plasmodium falciparum K1 assessed as reduction in [3H]-hypoxanthine incorporation preincubated for 24 hrs followed by [3H]-hypoxanthine addition measured after 24 hrs by scintillation counting method; assay type: functional, organism-based
Leishmania donovani = test: Antileishmanial activity against Leishmania donovani MHOM/ET/67/L82 axenic amastigotes after 72 hrs by alamar blue staining based fluorescence assay; assay type: functional, organism-based; conditions: MHOM/ET/67/L82, 72 h
[5] = system: Trypanosoma brucei rhodesiense; test: Antiprotozoal activity against Trypanosoma brucei rhodesiense STIB900 trypomastigote after 72 hrs by Alamar Blue assay; assay type: functional, organism-based; conditions: STIB900, 72 h
[6] = Selectivity index, ratio of CC50 for rat L6 cells to IC50 for Leishmania donovani MHOM/ET/67/L82 axenic amastigotes; assay type: toxicity; conditions: read-out: Ratio CC50/IC50
[7] = Selectivity index, ratio of CC50 for rat L6 cells to IC50 for Trypanosoma brucei rhodesiense STIB900 trypomastigote; assay type: toxicity; conditions: read-out: Ratio CC50/IC50
Mus musculus [8] = test: Toxicity in Balb/c mouse infected with Trypanosoma cruzi CL Brener assessed as lack of grooming at 25 mg/kg, ip bid for 4 days measured during compound dosing; assay type: organism-based; conditions: in vivo, 96 h
Mus musculus [9] = test: Toxicity in Balb/c mouse infected with Trypanosoma cruzi CL Brener assessed as reduction in mobility at 25 mg/kg, ip bid for 4 days measured during compound dosing; assay type: organism-based; conditions: in vivo, 96 h
Trypanosoma cruzi [10] = test: Antitrypanosomal activity against luciferase-expressing Trypanosoma cruzi CL Brener infected in Balb/c mouse assessed as reduction in parasitemia at 2.5 mg/kg, ip bid for 4 days by bioluminescence assay relative to control; assay type: functional; parameters: scale not given: the % may be the effect or the level left
Trypanosoma cruzi [11] = test: Potency index, ratio of benznidazole IC50 to test compound IC50 for Trypanosoma cruzi Tulahuen strain C2C4 amastigote forms infected in rat L6 cells; assay type: functional
Mus musculus [12] = test: Toxicity in Balb/c mouse infected with Trypanosoma cruzi CL Brener assessed as weight loss at 25 mg/kg, ip bid for 4 days measured during compound dosing; assay type: organism-based; conditions: in vivo, 96 h
Mus musculus [13] = test: Toxicity in Balb/c mouse infected with Trypanosoma cruzi CL Brener assessed as hunched posture at 25 mg/kg, ip bid for 4 days measured during compound dosing; assay type: organism-based; conditions: in vivo, 96 h
[14] = biological target: Sterol 14-alpha demethylase (Trypanosoma cruzi (strain CL Brener)) (UniProt Q7Z1V1); test: Binding affinity to Trypanosoma cruzi CYP51 at 5 to 10 uM by 96-well based UV-vis spectroscopic method
[15] = biological target: Sterol 14-alpha demethylase (Trypanosoma cruzi (strain CL Brener)) (UniProt Q7Z1V1); test: Binding affinity to Trypanosoma cruzi CYP51 by quartz cuvette based UV-vis spectroscopic method

Sequence of Sterol 14-alpha demethylase (Trypanosoma cruzi (strain CL Brener)) (Q7Z1V1 whole entry, looked up): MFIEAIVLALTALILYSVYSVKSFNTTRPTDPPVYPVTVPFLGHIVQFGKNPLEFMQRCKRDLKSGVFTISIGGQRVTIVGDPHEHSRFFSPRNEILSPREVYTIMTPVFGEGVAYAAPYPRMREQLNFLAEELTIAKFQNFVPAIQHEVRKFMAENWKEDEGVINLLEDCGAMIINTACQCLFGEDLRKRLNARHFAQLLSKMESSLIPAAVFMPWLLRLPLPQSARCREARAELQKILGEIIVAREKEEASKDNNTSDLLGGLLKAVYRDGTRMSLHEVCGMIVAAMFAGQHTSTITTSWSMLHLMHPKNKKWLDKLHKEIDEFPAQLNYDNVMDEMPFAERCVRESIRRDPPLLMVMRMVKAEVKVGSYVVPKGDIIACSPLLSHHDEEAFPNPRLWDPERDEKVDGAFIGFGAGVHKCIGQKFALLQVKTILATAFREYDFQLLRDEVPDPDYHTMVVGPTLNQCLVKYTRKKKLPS

`Cc1ccc(C(c2ccn(-c3ccc(Cl)cc3)c2)n2ccnc2)cc1` (stereo not drawn) showed a selectivity ratio [1] of 17, a CC50 at 72 h [2] of 42.6 µM and a selectivity ratio [3] of 25. For the same compound, the IC50 (Trypanosoma cruzi [4]) was 1.72 µM, the IC50 (Plasmodium falciparum) was 2.53 µM and the IC50 (Leishmania donovani) was 12.5 µM. It also gave an IC50 [5] of 53.5 µM and a selectivity ratio [6] of 3.
Compound `FC(F)(F)c1ccc(-c2c[nH]cc2C(c2ccc(Cl)cc2Cl)n2ccnc2)cc1` (stereo not drawn) has a selectivity ratio [1] of 67, a CC50 at 72 h [2] of 9.4 µM and a selectivity ratio [3] of 188. It also gave an IC50 (Trypanosoma cruzi [4]) of 0.05 µM, an IC50 (Plasmodium falciparum) of 0.14 µM and an IC50 (Leishmania donovani) of 12 µM. It also gave an IC50 [5] of 11.3 µM.
Compound `Fc1ccc(C(c2ccn(-c3ccc(Cl)cc3)c2)n2ccnc2)cc1` (stereo not drawn) has a selectivity ratio [1] of 16, a selectivity ratio [7] of 2 and a CC50 at 72 h [2] of 63.1 µM. The selectivity ratio [3] was 17, the IC50 (Trypanosoma cruzi [4]) was 3.75 µM and the IC50 (Plasmodium falciparum) was 3.98 µM. For the same compound, the IC50 (Leishmania donovani) was 15.8 µM, the IC50 [5] was 36.7 µM and the selectivity ratio [6] was 4.
With `Clc1ccc(C(c2c[nH]cc2-c2ccc(-c3ccncc3)cc2)n2ccnc2)c(Cl)c1` (stereo not drawn) the selectivity ratio [1] was 53, the selectivity ratio [7] was 2 and the CC50 at 72 h [2] was 15.5 µM. For the same compound, the selectivity ratio [3] was 6, the IC50 (Trypanosoma cruzi [4]) was 2.42 µM and the IC50 (Plasmodium falciparum) was 0.29 µM. For the same compound, the IC50 (Leishmania donovani) was 7.52 µM, the IC50 [5] was 9.74 µM and the selectivity ratio [6] was 2.
In the case of `Cn1cc(-c2ccc(Cl)cc2)c(C(c2ccc(Cl)cc2Cl)n2ccnc2)c1` (stereo not drawn), the Activity (Mus musculus [8]) is reported as “Non-Toxic”, the Activity (Mus musculus [9]) is reported as “Non-Toxic” and the Activity (Trypanosoma cruzi [10]) is reported as 98.5%. It also gave a selectivity ratio [1] of 31, a CC50 at 72 h [2] of 5.23 µM and a selectivity ratio [3] of 2620. For the same compound, the “Ratio IC50” value (Trypanosoma cruzi [11]) was 825, the Activity (Mus musculus [12]) was “Non-Toxic” and the IC50 (Trypanosoma cruzi [4]) was 0.002 µM. For the same compound, the IC50 (Plasmodium falciparum) was 0.17 µM, the IC50 (Leishmania donovani) was 4.3 µM and the Activity (Mus musculus [13]) was “Non-Toxic”. For the same compound, the Activity [14] was “Active”, the IC50 [5] was 36.5 µM and the selectivity ratio [6] was 1. For the same compound, the Activity [15] was “Active”.
With `Clc1ccc(C(c2c[nH]cc2-c2ccc(-c3ccccc3)cc2)n2ccnc2)c(Cl)c1` (stereo not drawn) the CC50 at 72 h [2] was over 202 µM, the IC50 (Trypanosoma cruzi [4]) was 32.6 µM and the IC50 (Plasmodium falciparum) was over 11 µM. For the same compound, the IC50 (Leishmania donovani) was 12.3 µM and the IC50 [5] was 17.7 µM.
`CC(C)(C)c1ccc(-c2c[nH]cc2C(c2ccc(Cl)cc2Cl)n2ccnc2)cc1` (stereo not drawn) showed a selectivity ratio [1] of 60, a CC50 at 72 h [2] of 22.9 µM and a selectivity ratio [3] of 2. For the same compound, the IC50 (Trypanosoma cruzi [4]) was 12.8 µM, the IC50 (Plasmodium falciparum) was 0.38 µM and the IC50 (Leishmania donovani) was 6.98 µM. It also gave an IC50 [5] of 41.2 µM and a selectivity ratio [6] of 3.
In the case of `Cc1ccc(C(c2ccn(-c3ccc(F)cc3)c2)n2ccnc2)cc1` (stereo not drawn), the selectivity ratio [1] is reported as 28, the selectivity ratio [7] is reported as 4 and the CC50 at 72 h [2] is reported as 60.6 µM. For the same compound, the selectivity ratio [3] was 21, the IC50 (Trypanosoma cruzi [4]) was 2.96 µM and the IC50 (Plasmodium falciparum) was 2.17 µM. It also gave an IC50 (Leishmania donovani) of 27.6 µM, an IC50 [5] of 15.8 µM and a selectivity ratio [6] of 2.
`Clc1ccc(-c2c[nH]cc2C(c2ccc(Cl)cc2Cl)n2ccnc2)c(Cl)c1` (stereo not drawn) showed a selectivity ratio [1] of 55, a CC50 at 72 h [2] of 9.86 µM and a selectivity ratio [3] of 290. It also gave an IC50 (Trypanosoma cruzi [4]) of 0.034 µM, an IC50 (Plasmodium falciparum) of 0.18 µM and an IC50 (Leishmania donovani) of 1.19 µM. The Activity [14] was “Active”, the IC50 [5] was 10.5 µM and the selectivity ratio [6] was 8.
`CSc1ccc(-c2c[nH]cc2C(c2ccc(Cl)cc2Cl)n2ccnc2)cc1` (stereo not drawn) gave a selectivity ratio [1] of 30, a CC50 at 72 h [2] of 7.22 µM and a selectivity ratio [3] of 168. It also gave an IC50 (Trypanosoma cruzi [4]) of 0.043 µM, an IC50 (Plasmodium falciparum) of 0.24 µM and an IC50 (Leishmania donovani) of 5.12 µM. For the same compound, the IC50 [5] was 15.8 µM and the selectivity ratio [6] was 1.
Work on `N#Cc1ccc(-c2c[nH]cc2C(c2ccc(Cl)cc2Cl)n2ccnc2)cc1` (stereo not drawn) yielded a selectivity ratio [1] of 23, a selectivity ratio [7] of 1 and a CC50 at 72 h [2] of 15 µM. For the same compound, the selectivity ratio [3] was 2, the IC50 (Trypanosoma cruzi [4]) was 10 µM and the IC50 (Plasmodium falciparum) was 0.66 µM. For the same compound, the IC50 (Leishmania donovani) was 8.75 µM, the IC50 [5] was 11.7 µM and the selectivity ratio [6] was 2.
`O=C(Cn1ccnc1[N+](=O)[O-])NCc1ccccc1` [BENZNIDAZOLE] gave an IC50 (Trypanosoma cruzi [4]) of 1.65 µM.
